This note sets out measurements from patent US4068074A, “Cephalosporin derivatives having at the 3-position of the cephem ring a heterocyclic thiomethyl group with a carboxy or sulfo group and at the 7-position of the cephem ring an α-heterocylic acylaminophenyl-acetamide group” (priority 1974, dated 1978).

Common to all, as to format: cell-based
Experiment [1] deals with Proteus vulgaris 0X 19US. As to the kind of experiment: MIC against bacteria (Table I), strain (2). As to conditions: 0X19US; (2) Proteus vulgaris 0X 19US; read-out: MIC. The source says: (§1) Now, for illustrating the excellent pharmacological effects of the compounds of this invention, the values of MIC (γ/ml.) of the compounds against various bacteria are shown in Table 1, in which the compounds of this invention used are shown by example numbers.
(2) Proteus vulgaris 0X 19US

Experiment [2] concerns Proteus mirabilis IXM OM-19. Kind of experiment: MIC against bacteria (Table I), strain (3). As to conditions: IXMOM19.
Description: as §1
(3) Proteus mirabilis IXM OM-19

Experiment [3] relates to Pseudomonas aeruginosa 99 (Gentamycin resistant). Kind of experiment: MIC against bacteria (Table I), strain (5).
Description: as §1
(5) Pseudomonas aeruginosa 99 (Gentamycin resistant)

Experiment [4] relates to Psuedomonas ovalis IMA 1002. As to the kind of experiment: MIC against bacteria (Table I), strain (6). As to conditions: (6) Psuedomonas ovalis IMA 1002; read-out: MIC.
Description: as §1
(6) Psuedomonas ovalis IMA 1002

Experiment [5] concerns Escherichia coli kauffmann 0-1. As to the kind of experiment: MIC against bacteria (Table I), strain (7). As to conditions: Escherichia coli.
Description: as §1
(7) Escherichia coli kauffmann 0-1

Experiment [6] has as its system Klebsiella pneumoniae ATCC 10031. As to the kind of experiment: MIC against bacteria (Table I), strain (8). As to conditions: ATCC10031; (8) Klebsiella pneumoniae ATCC 10031; read-out: MIC.
Description: as §1
(8) Klebsiella pneumoniae ATCC 10031

For experiment [7], the system named is Salmonella typhi H901 W. As to the kind of experiment: MIC against bacteria (Table I), strain (9). As to conditions: Salmonella enterica, TYPHI.
Description: as §1
(9) Salmonella typhi H901 W

The subject of experiment [8] is Salmonella enteritidis. As to the kind of experiment: MIC against bacteria (Table I), strain (10). As to conditions: Salmonella enterica.
Description: as §1
(10) Salmonella enteritidis

In experiment [9] the test system is Shigella flexneri 2a 1675. Kind of experiment: MIC against bacteria (Table I), strain (11). As to conditions: 2A1675.
Description: as §1

Experiment [10] deals with Shigella sonnei II 37148. As to the kind of experiment: MIC against bacteria (Table I), strain (12). As to conditions: II37148.
Description: as §1

Experiment [11] concerns Bacillus megatherium 10778. Kind of experiment: MIC against bacteria (Table I), strain (13). As to conditions: (13) Bacillus megatherium 10778; read-out: MIC.
Description: as §1

Experiment [12] has as its system Bacillus subtilis ATCC 6633. Kind of experiment: MIC against bacteria (Table I), strain (14). As to conditions: ATCC6633; (14) Bacillus subtilis ATCC 6633; read-out: MIC.
Description: as §1
(14) Bacillus subtilis ATCC 6633

Experiment [13] deals with Micrococcus flavus ATCC 10240. Kind of experiment: MIC against bacteria (Table I), strain (15). As to conditions: ATCC10240.
Description: as §1
(15) Micrococcus flavus ATCC 10240

In experiment [14] the test system is Staphylococcus aureus 209P. Kind of experiment: MIC against bacteria (Table I), strain (16).
Description: as §1
(16) Staphylococcus aureus 209P

Experiment [15] concerns Staphylococcus Shimanishi. Kind of experiment: MIC against bacteria (Table I), strain (17).
Description: as §1
(17) Staphylococcus Shimanishi

Experiment [16] concerns Staphylococcus Onuma. As to the kind of experiment: MIC against bacteria (Table I), strain (18).
Description: as §1
(18) Staphylococcus Onuma

The mark [17] stands for this setting: (3) Proteus mirabilis IXM OM-19, read-out: MIC.
[18] abbreviates: (5) Pseudomonas aeruginosa 99 (Gentamycin resistant), read-out: MIC.
The mark [19] stands for this setting: (10) Salmonella enteritidis, read-out: MIC.
The mark [20] stands for this setting: (11) Shigella flexneri 2a 1675, read-out: MIC.
Setting [21] is: (12) Shigella sonnei II 37148, read-out: MIC.
The mark [22] stands for this setting: (16) Staphylococcus aureus 209P, read-out: MIC.
The mark [23] stands for this setting: (18) Staphylococcus Onuma, read-out: MIC.

≈ marks a conversion by molar mass, not a printed value. Read-outs that look alike come from different tables or passages of the source.

As for `Cc1ncc(C(=O)N[C@@H](C(=O)N[C@@H]2C(=O)N3C(C(=O)O)=C(CSc4nnc(SCC(=O)O)s4)CS[C@H]23)c2ccccc2)c(O)n1` [Example 20, 7-[D-α-(4-hydroxy-2-methylpyrimidin-5-ylcarboxamido)-α-phenylacetamido]-3-(5-carboxymethylthio-1,3,4-thiadiazol-2-yl)thiomethyl-Δ^3-cephem-4-carboxylic acid], the MIC in experiment [1] was < 0.09 µg/mL; in [2] (setting [17]) it was 0.39 µg/mL (≈ 0.565 µM); in [3] (setting [18]) it was 25 µg/mL (≈ 36.2 µM); in [4], 50 µg/mL (≈ 72.5 µM); in [5], 12.5 µg/mL (≈ 18.1 µM); in [6], 25 µg/mL (≈ 36.2 µM). Also, the MIC is 12.5 µg/mL (≈ 18.1 µM) in [7]; 3.13 µg/mL (≈ 4.54 µM) in experiment [8] (setting [19]); 6.25 µg/mL (≈ 9.06 µM) in experiment [9] (setting [20]); 12.5 µg/mL (≈ 18.1 µM) in experiment [10] (setting [21]); 1.56 µg/mL (≈ 2.26 µM) in experiment [11]; 3.13 µg/mL (≈ 4.54 µM) in [12]. Also, the MIC stood at 6.25 µg/mL (≈ 9.06 µM) in experiment [13] (Micrococcus flavus), 3.13 µg/mL (≈ 4.54 µM) in [14] (setting [22]), 12.5 µg/mL (≈ 18.1 µM) in experiment [15] (Staphylococcus) and 12.5 µg/mL (≈ 18.1 µM) in experiment [16] (Staphylococcus).
Turning to `COc1cc(O)ncc1C(=O)N[C@@H](C(=O)N[C@@H]1C(=O)N2C(C(=O)O)=C(CSc3nnc(SCC(=O)O)s3)CS[C@H]12)c1ccccc1` [Example 28, 7-[D-α-(6-hydroxy-4-methoxynicotinoylamido)-α-phenylacetamido]-3-(5-carboxymethylthio-1,3,4-thiadiazol-2-yl)thiomethyl-Δ^3-cephem-4-carboxylic acid], the MIC was 12.5 µg/mL (≈ 17.7 µM) in [1]; 6.25 µg/mL (≈ 8.87 µM) in experiment [2] (setting [17]); 25 µg/mL (≈ 35.5 µM) in experiment [3] (Pseudomonas aeruginosa); 50 µg/mL (≈ 70.9 µM) in experiment [4]; 25 µg/mL (≈ 35.5 µM) in [5]; 50 µg/mL (≈ 70.9 µM) in experiment [6]. The MIC in experiment [7] came to 50 µg/mL (≈ 70.9 µM); in experiment [8] (setting [19]), 12.5 µg/mL (≈ 17.7 µM); in [9] (setting [20]) it was 25 µg/mL (≈ 35.5 µM); in experiment [10] (setting [21]) it was 25 µg/mL (≈ 35.5 µM); in [11] it was 6.25 µg/mL (≈ 8.87 µM); in experiment [12], 12.5 µg/mL (≈ 17.7 µM). For the same compound, the MIC in experiment [13] ((15) Micrococcus flavus ATCC 10240, read-out: MIC) was determined as 12.5 µg/mL (≈ 17.7 µM); in experiment [14] (setting [22]) it was 12.5 µg/mL (≈ 17.7 µM); in experiment [15] ((17) Staphylococcus Shimanishi, read-out: MIC), 100 µg/mL (≈ 142 µM); in experiment [16] (setting [23]), 100 µg/mL (≈ 142 µM).
As for `O=C(O)CSc1nnc(SCC2=C(C(=O)O)N3C(=O)[C@@H](NC(=O)[C@H](NC(=O)c4csccc4=O)c4ccc(O)cc4)[C@H]3SC2)s1` [Example 31, 7-[D-α-(4-thiopyrone-3-carboxamido)-α-p-hydroxyphenylacetamido]-3-[5-carboxymethylthio-1,3,4-thiadiazol-2-yl]thiomethyl-Δ^3-cephem-4-carboxylic acid], the MIC is 1.56 µg/mL (≈ 2.2 µM) in experiment [1]; 0.39 µg/mL (≈ 0.551 µM) in experiment [2] (setting [17]); 50 µg/mL (≈ 70.6 µM) in experiment [3] (setting [18]); 50 µg/mL (≈ 70.6 µM) in [4]; 3.13 µg/mL (≈ 4.42 µM) in experiment [5]; 6.25 µg/mL (≈ 8.83 µM) in experiment [6]. For the same compound, the MIC in experiment [7] came out at 0.39 µg/mL (≈ 0.551 µM); in experiment [8] (ENTERITIDIS) it was 0.39 µg/mL (≈ 0.551 µM); in experiment [9] (Shigella flexneri), 0.78 µg/mL (≈ 1.1 µM); in [10] (Shigella sonnei), 3.13 µg/mL (≈ 4.42 µM); in experiment [11], 0.39 µg/mL (≈ 0.551 µM); in [12], 0.39 µg/mL (≈ 0.551 µM). Also, the MIC worked out at 3.13 µg/mL (≈ 4.42 µM) in [13] (Micrococcus flavus), 0.39 µg/mL (≈ 0.551 µM) in experiment [14] (setting [22]), 3.13 µg/mL (≈ 4.42 µM) in experiment [15] (Staphylococcus) and 6.25 µg/mL (≈ 8.83 µM) in experiment [16] (setting [23]).
In the case of `COc1cc(C)ncc1C(=O)N[C@@H](C(=O)N[C@@H]1C(=O)N2C(C(=O)O)=C(CSc3nnc(SCC(=O)O)s3)CS[C@H]12)c1ccccc1` [Example 37, 7[-α-(4-methoxy-6-methylnicotinoylamido)-α-phenylacetamido]-3-(5-carboxymethyl-thio-1,3,4-thiadiazol-2yl)-thiomethyl-Δ^3-cephem-4-carboxylic acid], the MIC was 25 µg/mL (≈ 35.6 µM) in [1]; 3.13 µg/mL (≈ 4.45 µM) in experiment [2] (Proteus mirabilis); 12.5 µg/mL (≈ 17.8 µM) in [3] (setting [18]); 25 µg/mL (≈ 35.6 µM) in experiment [4]; 6.25 µg/mL (≈ 8.89 µM) in experiment [5]; 12.5 µg/mL (≈ 17.8 µM) in [6]. Moreover, the MIC in [7] is 6.25 µg/mL (≈ 8.89 µM); in [8] (ENTERITIDIS) it was 3.13 µg/mL (≈ 4.45 µM); in experiment [9] (setting [20]), 3.13 µg/mL (≈ 4.45 µM); in [10] (setting [21]), 6.25 µg/mL (≈ 8.89 µM); in experiment [11] it was 1.56 µg/mL (≈ 2.22 µM); in experiment [12], 0.78 µg/mL (≈ 1.11 µM). The MIC in experiment [13] (Micrococcus flavus) turned out to be 6.25 µg/mL (≈ 8.89 µM); in [14] (Staphylococcus aureus, 209P), 1.56 µg/mL (≈ 2.22 µM); in [15] (Staphylococcus), 6.25 µg/mL (≈ 8.89 µM); in experiment [16] (setting [23]), 12.5 µg/mL (≈ 17.8 µM).

Broadly, the MIC is the smallest concentration in the dilution series that meets the test's criterion for growth inhibition.
